Laboratory results taken from US20240058318A1, “DEGRADING PKCB1 TO TREAT CANCER” (Mayo Foundation for Medical Education and Research, priority 2020, published 2024).
“Also recorded” adds a separate entry of the source.

How the values were obtained:
[1] = test system: PKCβ1, E2F1, and Cyclin D1; test: Western blot, BT549 and MDAMB436 cells (Example 6); type: cell-based; details: 1 μM, 24, 48, 72 hours
Experimental: TNBC BT549 and MDAMB436 cells were cultured in phenol-red free DMEM/F12 medium supplemented with 10% fetal bovine serum (FBS) and 1% AA. On day 1, cells were plated at a density of 2×10^5 BT549 cells or 4×10^5 MDAMB436 cells in a 6-well plate (two wells per treatment). The next day, cells were treated with DMSO, 1 μM Pr-9 (positive control), 1 μM Pr-9-1, 1 μM Pr-9-4, or 1 μM ENDX (negative control). Radioimmunoprecipitation Assay (RIPA) protein lysates were collected 24, 48, and 72 hours after treatment.
For western blot analysis, […] of protein lysates were run on Criterion precast 10% Bis-Tris gel, transferred to PVDF membrane, incubated in TBST-5% milk for one hour, and then incubated overnight with PKCβ1 (SC8049, mouse, 1:200), E2F1 (SC251, mouse, 1:250), Cyclin D1 (CS2978, rabbit, 1:1000), or Actin (Sigma A2228, mouse, 1:10,000 or CS8457, rabbit, 1:2000) primary antibodies in TBST-5% BSA solution. Membranes were washed in TBS-T, incubated for one-hour in HRP-linked anti-rabbit or anti-mouse secondary antibodies in TBST-5% milk, and washed in TBS-T. Bands were developed using west-pico or west-femto chemiluminescent substrate reagents.

PKCβ1 = target: T1, PKCβ1 (Homo sapiens, UniProt P05771); test: Western blot, PKCβ1 expression in MCF7AC1 cells; type: cell-based; details: 1 μM, within 72 hours, drugs replenished every 24 hours
T1 construct: western blots showing expression of PKCβ1 in MCF7AC1 cells treated with 1 μM concentration of the ENDX-PROTACs or ENDX; endogenous in cells; host or cells: MCF7AC1 (ER+ breast cancer cells)
T1 sequence (P05771 whole entry): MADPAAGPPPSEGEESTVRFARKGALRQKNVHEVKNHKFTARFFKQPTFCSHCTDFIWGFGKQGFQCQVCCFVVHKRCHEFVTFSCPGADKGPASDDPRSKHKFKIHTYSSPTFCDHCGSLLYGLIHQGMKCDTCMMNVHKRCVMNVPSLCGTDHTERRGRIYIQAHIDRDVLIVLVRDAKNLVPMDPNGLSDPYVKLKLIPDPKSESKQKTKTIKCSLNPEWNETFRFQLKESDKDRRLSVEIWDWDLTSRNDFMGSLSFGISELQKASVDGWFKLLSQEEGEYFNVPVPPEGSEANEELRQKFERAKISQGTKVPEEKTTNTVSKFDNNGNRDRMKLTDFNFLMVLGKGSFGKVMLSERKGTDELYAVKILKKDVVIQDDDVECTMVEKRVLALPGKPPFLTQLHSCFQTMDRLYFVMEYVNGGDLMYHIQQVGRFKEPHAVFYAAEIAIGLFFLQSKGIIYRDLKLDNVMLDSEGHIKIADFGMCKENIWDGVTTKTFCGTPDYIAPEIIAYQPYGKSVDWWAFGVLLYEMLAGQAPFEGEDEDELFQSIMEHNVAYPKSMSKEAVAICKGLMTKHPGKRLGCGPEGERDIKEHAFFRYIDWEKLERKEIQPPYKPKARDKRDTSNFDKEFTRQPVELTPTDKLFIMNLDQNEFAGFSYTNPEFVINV
Experimental: For western blotting analysis, cells were treated with vehicle (DMSO) or 1 μM of the indicated ENDX-PROTAC's or parent drug ENDX for 24, 48 and 72 hours with the drugs replenished every 24 hours. 25 μg of protein lysates were run on 10% Bis-Tris XT Criterion precast SDS-PAGE gels and transferred on to PVDF membrane. Following blocking with TB ST-5% milk, the membranes were probed with primary antibodies (1:500 — 1:2000 dilutions) for PKCβ1 (Abcam #136917), ERα (SC #8002), E2F1 (SC #251) and Actin (CS#8457) in TBST-5% BSA and secondary antibodies (1:2000 dilution) in TBST-5% milk. Membranes were developed using chemiluminescent WestPico or WestFemto detection solutions on the Li-Cor Imaging system.

[2] = test system: Rb-proficient (MDAMB231) and Rb-deficient (BT549 and MDAMB436) TNBC cells; test: CV proliferation assay, TNBC cells (statements across lines); type: cell-based; details: for inhibition of growth of TNBC cells: MDAMB231, BT549, MDAMB436, CV assay
Experimental: (§1) Cell proliferation rates were determined using crystal violet assays. One thousand cells per well were plated in 96 well tissue culture plates and treated the following day with a bifunctional compound or control for 7 days in replicates of 8. Cells were fixed with 25% glutaraldehyde for 10 minutes with shaking, washed 5 times with distilled water, stained with a 1% crystal violet solution (solubilized in 25% methanol) for 10 minutes, washed again 5 times and allowed to dry. De-staining was performed using […] sodium citrate in 50% ethanol followed by quantification using a 96 well spectrophotometer set at an absorbance of 550 nm.
as §1, with “using CV” for “using crystal violet”, “assays. Two” for “assays. One”, “thousand (2000) or 4000” for “thousand”, “for 6” for “for 7”, “of 6.” for “of 8.”

[3] = Pharmacokinetics in mice, plasma by UPLC-MS/MS; type: in vivo, female CD1 mice; details: for Concentration ENDX PROTAC 9: PO 10 mg/kg, mouse plasma, individual samples
Experimental: ENDX PROTAC 7 and PROTAC 9 pharmacokinetics were characterized in female CD1 mice. Blood samples were collected from mice anesthetized under isoflurane via retro-orbital eye bleed into tubes containing EDTA and immediately chilled on ice. NaF was added to the EDTA collection tubes to help stabilize the drug in whole blood for the second IV and IP studies with ENDX PROTAC 9, and for the IV and oral studies with PROTAC 7. Plasma and red blood cells were separated immediately by centrifugation in a refrigerated centrifuge at 4° C. The plasma was transferred to a separate tube and immediately frozen at −20° C.
For IV dosing, ENDX PROTAC 9 was dissolved in 10% DMSO, 10% PEG 400, and 80% normal saline for a final concentration of 0.2 mg/mL ENDX PROTAC 9 for the 1 mg/kg IV doses. ENDX PROAC 7 was dissolved in 15% DMSO, 9.44% PEG400, and […] normal saline for a final concentration of 0.19 mg/mL for the 1 mg/kg IV doses. Blood samples (3 mice per time-point) were collected 5 minutes, 15 minutes, 0.5 hour, 1 hour, 2 hours, 4 hours, 8 hours, and 24 hours after administration of the ENDX PROTAC. A second IV study was performed for ENDX PROTAC 9 in which blood samples (3 mice per time-point) were collected 5 minutes, 15 minutes, 1 hour, and 2 hours after administration of ENDX PROTAC 9. For oral dosing, ENDX PROTAC 9 (10 mg/kg) and ENDX PROTAC 7 (10 mg/kg) were suspended in 1 mM ascorbic acid:PEG400, 1:1 v/v for a final concentration of 1.0 mg/mL ENDX PROTAC. Blood samples (three mice per time-point) were collected 15 minutes, 0.5 hour, 1 hour, 2 hours, 4 hours, 6 hours, 8 hours, and 24 hours after administering the ENDX PROTAC. For LP. dosing, ENDX PROTAC 9 (4 mg/kg) was prepared in 1 mM ascorbic acid:PEG400, 1:1 v/v for a final concentration of 0.4 mg/mL ENDX PROTAC 9. Blood samples (three mice per time-point) were collected 15 minutes, 0.5 hour, 1 hour, 2 hours, 4 hours, 6 hours, 8 hours, and 24 hours after administration. Plasma concentrations of ENDX PROTAC 7 and 9 were measured using UPLC-MS/MS.

KURAMOCHI cells = test: CV proliferation assay, KURAMOCHI ovarian cancer cells; type: cell-based; details: KURAMOSHI (PKCß1 low), 1000 cells/well
Experimental: as §1
(§2) Based on the potent anti-proliferative activity of ENDX-PROTACs TC-Pr-006, TC-Pr-007, TC-Pr -008, and TC-Pr -009 in TNBC cells, the efficacy of these compounds for inhibiting the growth of ovarian cancer cells was tested. This analysis utilized KURAMOCHI cells, which represent the high-grade serous subtype (the most malignant form that accounts for 70% of all ovarian cancers and associates with poor clinical outcome) and MDAH-2774 cells, which represent endometrioid ovarian cancer and accounts for 20% of all ovarian cancer. PKCβ1 was confirmed to be expressed in both ovarian cancer cell line models, with MDAH-2774 cells expressing higher amounts of PKCβ1 compared to KURAMOCHI cells (FIG. 5A).

MDAMB436 cells = test: Crystal violet (CV) proliferation assay, MDAMB436; type: cell-based; details: MDAMB436 (PKCß1 low, Rb negative), 2000 cells
Experimental: as §1, with “One thousand cells per well were plated in 96 well tissue culture plates and treated the following day with a bifunctional compound or control for 7 days in replicates of 8.” left out

BT549 cells = test: Crystal violet (CV) proliferation assay, BT549; type: cell-based; details: BT549 (PKCß1 high, Rb negative), 2000 cells
Experimental: as §1, with “One thousand cells per well were plated in 96 well tissue culture plates and treated the following day with a bifunctional compound or control for 7 days in replicates of 8.” left out

MDAH-2774 cells = test: CV proliferation assay, MDAH-2774 ovarian cancer cells; type: cell-based; details: MDAH-2774 (PKCß1 high), 1000 cells/well
Experimental: as §1, §2

MDAMB231 cells = test: Crystal violet (CV) proliferation assay, MDAMB231; type: cell-based; details: MDAMB231 (PKCß1 high, Rb positive), 2000 cells
Experimental: as §1, with “One thousand cells per well were plated in 96 well tissue culture plates and treated the following day with a bifunctional compound or control for 7 days in replicates of 8.” left out

[4] = test system: MDAH-2774 and KURAMOCHI ovarian cancer cells; test: CV proliferation assay, ovarian cancer cells (statements across lines); type: cell-based; details: MDAH-2774 and KURAMOCHI cells
Experimental: as §1, §2

MCF7AC1 cells = test: CV proliferation assay, ER+ MCF7AC1; type: cell-based
Experimental: as §1
as §1, with “using CV” for “using crystal violet”, “assays. Two” for “assays. One”, “thousand (2000) or 4000” for “thousand”, “for 6” for “for 7”, “of 6.” for “of 8.”

Structure (SMILES): CCC(=C(c1ccc(O)cc1)c1ccc(OCCN(C)C(=O)COCCOCCNC(=O)Cc2ccc3c(c2)CN(C2CCC(=O)NC2=O)C3=O)cc1)c1ccccc1 (stereo not shown) [TC-Pr-009, 2-[2-(2-2-[2-(2,6-dioxopiperidin-3-yl)-1-oxo-2,3-dihydro-1H-isoindo1-5-yl]acetamidoethoxy)ethoxy]-N-(2-4-[1-(4-hydroxyphenyl)-2-phenylbut-1-en-1-yl]phenoxyethyl)-N-methylacetamide]
- PKCβ1 protein levels [1]: altered to varying extent
- protein levels of E2F1 and Cyclin D1 ([1]; listed as Pr-9): clearly reduced by 48 hours; also recorded: reduced protein levels
- PKCβ1 polypeptide degradation (PKCβ1): rapidly degraded PKCβ1 polypeptides
- induction of apoptosis ([2]; MDAMB231 and BT549 cells (FIG. 4A and TABLE 1)): induced apoptosis
- Concentration ENDX PROTAC 9 ([3]; 120 minutes, listed as ENDX PROTAC 9, 10 mg/kg): BLD*
- Concentration ENDX PROTAC 9 ([3]; 360 minutes, listed as ENDX PROTAC 9, 10 mg/kg): BLD
- Concentration ENDX PROTAC 9 ([3]; 480 minutes, listed as ENDX PROTAC 9, 10 mg/kg): BLD
- Concentration ENDX PROTAC 9 ([3]; 1440 minutes): BLD
- time of peak plasma concentration ([3]; mice, I.V. 1 mg/kg, second study, NaF added to EDTA tubes): 5 min
- stability in whole blood ([3]; mouse whole blood, comparison of IV studies with and without NaF): unstable in whole blood

Structure (SMILES): CC/C(=C(\c1ccc(O)cc1)c1ccc(OCCN(C)C(=O)COCCOCCNC(=O)c2ccc3c(c2)CN([C@H]2CCC(=O)NC2=O)C3=O)cc1)c1ccccc1 [TC-Pr-006]
- IC50 (KURAMOCHI cells; read-out: Approximate IC50): > 10000 nM
- IC50 (MDAMB436 cells): 333 nM
- IC50 (BT549 cells): 482 nM
- IC50 (MDAH-2774 cells; read-out: Approximate IC50): > 10000 nM
- IC50 (MDAMB231 cells): 532 nM

Structure (SMILES): CC/C(=C(\c1ccc(O)cc1)c1ccc(OCCNC)cc1)c1ccccc1 [ENDX, endoxifen, reference compound]
- concentration inhibiting growth of ovarian cancer cells [4]: 10 µM
- concentration inhibiting growth of TNBC cells ([2]; Rb-proficient and Rb-deficient TNBC cells, CV assay): > 5 µM

Structure (SMILES): CC/C(=C(\c1ccc(O)cc1)c1ccc(OCCN(C)C(=O)COCCO[C@@H]2CCN(C(=O)Cc3ccc4c(c3)CN(C3CCC(=O)NC3=O)C4=O)C2)cc1)c1ccccc1 (stereo partly shown) [Pr-9-4]
- impact on PKCβ1, E2F1, and Cyclin D1 protein expression [1]: lack of impact
- inhibition of growth of TNBC cells [2]: did not inhibit growth of MDAMB231, BT549, or MDAMB436 TNBC cells as effectively
- inhibition of growth of ER+ MCF7AC1 cells (MCF7AC1 cells): inhibited growth of ER+ MCF7AC1 cells

Structure (SMILES): CC/C(=C(\c1ccc(O)cc1)c1ccc(OCCN(C)C(=O)COCCOCCNC(=O)c2cccc3c2CN([C@H]2CCC(=O)NC2=O)C3=O)cc1)c1ccccc1 [TC-Pr-003]
- Approximate IC50 (result in words) (KURAMOCHI cells): No killing
- IC50 (result in words) (MDAMB436 cells): No major killing
- IC50 (result in words) (BT549 cells): No major killing
- Approximate IC50 (result in words) (MDAH-2774 cells): No killing
- IC50 (result in words) (MDAMB231 cells): No major killing

Structure (SMILES): CC/C(=C(\c1ccc(O)cc1)c1ccc(OCCN(C)C(=O)COCCOCCN(C)C(=O)Cc2ccc3c(c2)CN(C2CCC(=O)NC2=O)C3=O)cc1)c1ccccc1 (stereo not shown) [Pr-9-1]
- impact on PKCβ1, E2F1, and Cyclin D1 protein expression [1]: lack of impact
- inhibition of growth of TNBC cells [2]: did not inhibit growth of MDAMB231, BT549, or MDAMB436 TNBC cells as effectively
- inhibition of growth of ER+ MCF7AC1 cells (MCF7AC1 cells): inhibited growth of ER+ MCF7AC1 cells
